# Experimental data: patent publication EP0852225B1, “FIBRINOGEN RECEPTOR ANTAGONISTS AND MEDICINAL PREPARATIONS CONTAINING THE SAME AS THE ACTIVE INGREDIENT” (NIPPON STEEL CORPORATION, priority 1996, dated 1997)
# Tested on: Human Platelet Aggregation
# Assay: Measurement of in vitro human platelet aggregation using PRP (collagen-induced, aggregometer light transmittance)
# Format: cell-based
# Conditions: platelet aggregation inhibition in human PRP; collagen final concentration 5 µg/ml; 37°C
# Procedure: Healthy male volunteers who had not taken any medicines for at least two weeks were selected as subjects. Blood was collected from the forearm vein of each subject on an empty stomach using a #19 needle and a plastic syringe preliminarily charged with 1/10 volume of a 3.8% sodium citrate solution. Immediately after the blood collection, the syringe was shaken gently to mix the blood with the sodium citrate solution. The mixed blood was centrifuged (1100 rpm, 250 g) at room temperature for 15 minutes and the rotation was stopped without applying the brake. Then, the supernatant was collected with a graduated pipette to obtain platelet-rich plasma (PRP). The PRP was stored at room temperature. The blood remaining after the centrifugation was further centrifuged (3500 rpm, 1500 g) at room temperature for 15 minutes and the rotation was stopped without applying the brake. The supernatant was collected to obtain platelet-poor plasma (PPP). After the preparation of the PRP, the number of platelets was counted and only samples containing 2 x 10^8 or more of platelets per milliliter were subjected to the following experiments.
# Platelet aggregation was measured using an 8-channel aggregometer (Hematracer, Nikoh Bioscience, Tokyo, Japan) on the basis of the change in light transmittance through the PRP as follows.
# First, the PPP and PRP (each 200 µl) were placed in glass cuvettes and incubated at 37°C. Thereafter, the transmittance was measured. The transmittance of the PPP was defined as 100% and that of the PRP as 0%.
# Then, 10 µl of physiological saline or a sample-containing physiological saline was added to the PRP and incubated at 37°C for one minute. A collagen solution (10 µl) at a concentration of 100 µg/ml was added to the PRP-containing solution (final concentration: 5 µg/ml) to induce aggregation and thereafter the transmittance was measured over 7 minutes. After the aggregation with collagen and ADP was confirmed, only those samples in which the maximum percent aggregation with collagen was at least 70% were subjected to the experiment.
# The sample was dissolved in physiological saline to give a concentration of 2.2 x 10^-2 M and a 2-fold dilution series was prepared for use in the experiments. The samples insoluble in the physiological saline were dissolved in physiological saline containing 10% DMSO (dimethyl sulfoxide).
# The results were calculated as follows: Percent Aggregation inhibition =(Maximum percent aggregation upon the addition of sample)/(Maximum percent aggregation upon the addtion of physiological saline) [formula]
# A graph was constructed by plotting the percent of aggregation inhibition against the sample concentration and the concentration at which the aggregation was inhibited by 50% (IC50) was calculated from the graph.
row,SMILES,IC50
1,"CCC(NC(=O)c1ccc(C(=N)N2CCSC2)cc1F)C(C)(C)C(=O)N1CCC(CC(=O)O)CC1 (stereo not drawn) [Example 16, N-(N-(4-(3-thizolidinoimidoyl)-2-fluorobenzoyl)-β-ethyl-α,α-dimethyl-β-alanyl)-4-piperidineacetic acid]",43 nM
2,"CCC(NC(=O)c1ccc(C(=N)N2CCN(C)CC2)cc1F)C(C)(C)C(=O)N1CCC(CC(=O)O)CC1 (stereo not drawn) [Example 22, N-(N-(4-(4-methyl-1-piperazinoimidoyl)-2-fluorobenzoyl)-β-ethyl-α,α-dimethyl-β-alanyl)-4-piperidineacetic acid]",69 nM
3,"CCC(NC(=O)c1ccc(C(=N)N2CCC(=O)CC2)cc1F)C(C)(C)C(=O)N1CCC(CC(=O)O)CC1 (stereo not drawn) [Example 12, N-(N-(4-(1-4-piperidonoimidoyl)-2-fluorobenzoyl)-β-ethyl-α,α-dimethyl-β-alanyl)-4-piperidineacetic acid]",120 nM
4,"CCC(NC(=O)c1ccc(C(=N)N2CCN(c3ccccc3)CC2)cc1F)C(C)(C)C(=O)N1CCC(CC(=O)O)CC1 (stereo not drawn) [Example 24, N-(N-(4-(4-phenyl-1-piperazinoimidoyl)-2-fluorobenzoyl)-β-ethyl-α,α-dimethyl-β-alanyl)-4-piperidineacetic acid]",57 nM
5,"CCC(NC(=O)c1ccc(C(=N)N2CCC(O)CC2)cc1F)C(C)(C)C(=O)N1CCC(CC(=O)O)CC1 (stereo not drawn) [Example 14, N-(N-(4-(4-hydroxy-1-piperidinoimidoyl)-2-fluorobenzoyl)-β-ethyl-α,α-dimethyl-β-alanyl)-4-piperidineacetic acid]",52 nM
6,"CCC(NC(=O)c1ccc(C(=N)N2CCOCC2)cc1)C(C)(C)C(=O)N1CCC(CC(=O)O)CC1 (stereo not drawn) [Example 2, N-(N-(9-(4-morpholinoimidoyl)benzoyl)-β-ethyl-α,α-dimethyl-β-alanyl)-4-piperidineacetic acid]",220 nM
7,CC(C)(C(=O)N1CCC(CC(=O)O)CC1)C(NC(=O)c1ccc(C(=N)N2CCOCC2)cc1)c1ccccc1 (centres unmarked) [Example 28],240 nM
8,"CCC(NC(=O)c1ccc(C(=N)N2CCN(c3ccc(F)cc3)CC2)cc1F)C(C)(C)C(=O)N1CCC(CC(=O)O)CC1 (stereo not drawn) [Example 26, N-(N-(4-(4-(4-fluorophenyl)-1-piperazinoimidoyl)-2-fluorobenzoyl)-β-ethyl-α,α-dimethyl-β-alanyl)-4-piperidineacetic acid]",87 nM
9,"CCC(NC(=O)c1ccc(C(=N)N2CCOCC2)cc1F)C(C)(C)C(=O)N1CCC(CC(=O)O)CC1 (stereo not drawn) [Example 4, N-{N-(4-(4-morpholinoimidoyl)-2-fluorobenzoyl)-β-ethyl-α,α-dimethyl-β-alanyl)-4-piperidineacetic acid]",150 nM
10,"CCC(NC(=O)c1ccc(C(=N)N2CCCCC2)cc1F)C(C)(C)C(=O)N1CCC(CC(=O)O)CC1 (stereo not drawn) [Example 8, N-(N-(4-(1-piperidinoimidoyl)-2-fluorobenzoyl)-β-ethyl-α,α-dimethyl-β-alanyl)-4-piperidineacetic acid]",220 nM
11,"CCC(NC(=O)c1ccc(C(=N)N2CCSCC2)cc1F)C(C)(C)C(=O)N1CCC(CC(=O)O)CC1 (stereo not drawn) [Example 20, N-(N-(4-(N-thiomorpholinoimidoyl)-2-fluorobenzoyl)-β-ethyl-α,α-dimethyl-β-alanyl)-4-piperidineacetic acid]",120 nM
12,"CCC(NC(=O)c1ccc(C(=N)N2CCCCCC2)cc1F)C(C)(C)C(=O)N1CCC(CC(=O)O)CC1 (stereo not drawn) [Example 18, N-(N-(4-(1-hexamethyleneiminoimidoyl)-2-fluorobenzoyl)-β-ethyl-α,α-dimethyl-β-alanyl)-4-piperidineacetic acid]",230 nM
13,"CCC(NC(=O)c1ccc(C(=N)N2CCCC2)cc1F)C(C)(C)C(=O)N1CCC(CC(=O)O)CC1 (stereo not drawn) [Example 10, N-(N-(4-(1-pyrrolidinoimidoyl)-2-fluorobenzoyl)-β-ethyl-α,α-dimethyl-β-alanyl)-4-piperidineacetic acid]",87 nM

# Tested on: not listed separately
# Assay: Oral administration test: time course of the concentration in plasma after oral administration
# Format: in vivo
# Conditions: male SD rats, 10 mg per kg, 30, 60 and 120 minutes after administration, HPLC, mean of three rats
# Procedure: Male SD rats which had been starved from the previous day were used in this experiment. Two test substances, the compounds of Example 4 and Comparative Example 1, were dissolved in distilled water and administered into the stomach of rats with an oral probe. Each compound was administered to each rat in an amount of 10 mg per kg of body weight. Blood samples were collected 30, 60 and 120 minutes after the administration. The concentration of each compound which was in an active state (i.e., free carboxylic acid) in plasma was determined by HPLC.
# In this Figure, the horizontal axis represents the time after the oral administration and the vertical axis represents the concentration of the active form of each compound in plasma. Each point represents the mean value for three rats and the standard error. […] When the peak values at 30 minutes after the oral administration are compared, the difference was about 10 times as great.
row,SMILES,"concentration of the active form (free carboxylic acid) in plasma, compared with Comparative Example 1"
1,"CCC(NC(=O)c1ccc(C(=N)N2CCOCC2)cc1F)C(C)(C)C(=O)N1CCC(CC(=O)O)CC1 (stereo not drawn) [Example 4, N-{N-(4-(4-morpholinoimidoyl)-2-fluorobenzoyl)-β-ethyl-α,α-dimethyl-β-alanyl)-4-piperidineacetic acid]",significantly higher concentration in plasma than the compound of Comparative Example 1 at every point of determination
